Reference: US10597388B2, “Pyridazinone herbicides” (FMC CORPORATION, priority 2014, dated 2020)

Columns and labels:
Test in all cases: Test D controlled growth environment herbicide test, pre- and postemergence
Format in all cases: in vivo
[1] = test system: bromegrass, downy (downy bromegrass, Bromus tectorum)
Method in brief: (§1)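 Rating is visual, 0–100 scale (100 = complete control), made against untreated plants 14–21 d after treatment in controlled growth conditions. Postemergence sprays went onto 1- to 4-leaf plants in peat medium; preemergence sprays onto silt loam after sowing; formulation included a surfactant.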

[2] = test system: wheat, spring (spring wheat, Triticum aestivum)
Method in brief: as §1

[3] = test system: deadnettle (henbit deadnettle, Lamium amplexicaule)
Method in brief: as §1

[4] = test system: mustard, wild (wild mustard, Sinapis arvensis)
Method in brief: as §1

[5] = test system: oilseed rape (Brassica napus)
Method in brief: as §1

[6] = test system: speedwell (bird's-eye speedwell, Veronica persica)
Method in brief: as §1

[7] = test system: windgrass (Apera spica-venti)
Method in brief: as §1

[8] = test system: barley, spring (spring barley, Hordeum vulgare)
Method in brief: as §1

[9] = test system: chamomile (scentless chamomile, Matricaria inodora)
Method in brief: as §1

[10] = test system: oat, wild (wild oat, Avena fatua)
Method in brief: as §1

[11] = test system: lambsquarters (Chenopodium album)
Method in brief: as §1

[12] = test system: radish, wild (wild radish, Raphanus raphanistrum)
Method in brief: as §1

[13] = test system: field violet (Viola arvensis)
Method in brief: as §1

[14] = Postemergence, 31 g ai/ha, scale 0 to 100 (0 no effect, 100 complete control)
[15] = Postemergence, 125 g ai/ha, visual rating on scale 0 (no effect) to 100 (complete control), 14 to 21 d
[16] = Postemergence, 250 g ai/ha, scale 0 to 100 (0 no effect, 100 complete control)
[17] = Preemergence, 62 g ai/ha, scale 0 to 100 (0 no effect, 100 complete control)
[18] = Preemergence, 125 g ai/ha, scale 0 to 100 (0 no effect, 100 complete control)
[19] = Preemergence, 250 g ai/ha, scale 0 to 100 (0 no effect, 100 complete control)
[20] = postemergence, 62 g ai/ha, scale 0 to 100, 0 no effect, 100 complete control

Cc1ccc2ccc(C)c(-c3c(O)c(C)nn(C)c3=O)c2c1 [Compound 60]
Bromegrass, Downy plant response rating [1, 14]: 30
Plant response rating, Bromegrass, Downy [1, 15]: 65
Plant response rating, Bromegrass, Downy [1, 16]: 80
Plant response rating (scale of 0 to 100), Bromegrass, Downy ([1]; Preemergence, 31 g ai/ha): 60
Plant response rating, Bromegrass, Downy [1, 17]: 90
Plant response rating, Bromegrass, Downy [1, 18]: 95
Plant response rating, Bromegrass, Downy [1, 19]: 98
Plant response rating, Bromegrass, Downy [1, 20]: 55
Wheat, Spring plant response rating [2, 14]: 30
Plant response rating, Wheat, Spring [2, 15]: 40
Plant response rating, Wheat, Spring [2, 16]: 55
Plant response rating (scale of 0 to 100), Wheat, Spring ([2]; Preemergence, 31 g ai/ha): 35
Plant response rating, Wheat, Spring [2, 17]: 55
Plant response rating, Wheat, Spring [2, 18]: 65
Plant response rating, Wheat, Spring [2, 19]: 75
Plant response rating, Wheat, Spring [2, 20]: 35
Deadnettle plant response rating [3, 14]: 70
Plant response rating, Deadnettle [3, 15]: 95
Plant response rating, Deadnettle [3, 16]: 95
Plant response rating (scale of 0 to 100), Deadnettle ([3]; Preemergence, 31 g ai/ha): 35
Plant response rating, Deadnettle [3, 17]: 90
Plant response rating, Deadnettle [3, 18]: 85
Plant response rating, Deadnettle [3, 19]: 100
Plant response rating, Deadnettle [3, 20]: 75
Mustard, Wild plant response rating [4, 14]: 75
Plant response rating, Mustard, Wild [4, 15]: 98
Plant response rating, Mustard, Wild [4, 16]: 100
Plant response rating (scale of 0 to 100), Mustard, Wild ([4]; Preemergence, 31 g ai/ha): 45
Plant response rating, Mustard, Wild [4, 17]: 70
Plant response rating, Mustard, Wild [4, 18]: 85
Plant response rating, Mustard, Wild [4, 19]: 90
Plant response rating, Mustard, Wild [4, 20]: 75
Oilseed Rape plant response rating [5, 14]: 65
Plant response rating, Oilseed Rape [5, 15]: 75
Plant response rating, Oilseed Rape [5, 16]: 80
Plant response rating (scale of 0 to 100), Oilseed Rape ([5]; Preemergence, 31 g ai/ha): 0
Plant response rating, Oilseed Rape [5, 17]: 15
Plant response rating, Oilseed Rape [5, 18]: 40
Plant response rating, Oilseed Rape [5, 19]: 80
Plant response rating, Oilseed Rape [5, 20]: 70
Speedwell plant response rating [6, 14]: 85
Plant response rating, Speedwell [6, 15]: 90
Plant response rating, Speedwell [6, 16]: 100
Plant response rating (scale of 0 to 100), Speedwell ([6]; Preemergence, 31 g ai/ha): 100
Plant response rating, Speedwell [6, 17]: 100
Plant response rating, Speedwell [6, 18]: 100
Plant response rating, Speedwell [6, 19]: 100
Plant response rating, Speedwell [6, 20]: 80
Windgrass plant response rating [7, 14]: 80
Plant response rating, Windgrass [7, 15]: 90
Plant response rating, Windgrass [7, 16]: 98
Plant response rating (scale of 0 to 100), Windgrass ([7]; Preemergence, 31 g ai/ha): 85
Plant response rating, Windgrass [7, 17]: 90
Plant response rating, Windgrass [7, 18]: 100
Plant response rating, Windgrass [7, 19]: 100
Plant response rating, Windgrass [7, 20]: 85
Barley, Spring plant response rating [8, 14]: 15
Plant response rating, Barley, Spring [8, 15]: 40
Plant response rating, Barley, Spring [8, 16]: 50
Plant response rating (scale of 0 to 100), Barley, Spring ([8]; Preemergence, 31 g ai/ha): 5
Plant response rating, Barley, Spring [8, 17]: 10
Plant response rating, Barley, Spring [8, 18]: 45
Plant response rating, Barley, Spring [8, 19]: 60
Plant response rating, Barley, Spring [8, 20]: 25
Chamomile plant response rating [9, 14]: 75
Plant response rating, Chamomile [9, 15]: 100
Plant response rating, Chamomile [9, 16]: 100
Plant response rating (scale of 0 to 100), Chamomile ([9]; Preemergence, 31 g ai/ha): 95
Plant response rating, Chamomile [9, 17]: 100
Plant response rating, Chamomile [9, 18]: 100
Plant response rating, Chamomile [9, 19]: 100
Plant response rating, Chamomile [9, 20]: 80
Oat, Wild plant response rating [10, 14]: 85
Plant response rating, Oat, Wild [10, 15]: 95
Plant response rating, Oat, Wild [10, 16]: 100
Plant response rating (scale of 0 to 100), Oat, Wild ([10]; Preemergence, 31 g ai/ha): 90
Plant response rating, Oat, Wild [10, 17]: 95
Plant response rating, Oat, Wild [10, 18]: 100
Plant response rating, Oat, Wild [10, 19]: 100
Plant response rating, Oat, Wild [10, 20]: 90
Lambsquarters plant response rating [11, 14]: 80
Plant response rating, Lambsquarters [11, 15]: 80
Plant response rating, Lambsquarters [11, 16]: 80
Plant response rating (scale of 0 to 100), Lambsquarters ([11]; Preemergence, 31 g ai/ha): 100
Plant response rating, Lambsquarters [11, 17]: 100
Plant response rating, Lambsquarters [11, 18]: 100
Plant response rating, Lambsquarters [11, 19]: 100
Plant response rating, Lambsquarters [11, 20]: 80
Radish, Wild plant response rating [12, 14]: 65
Plant response rating, Radish, Wild [12, 15]: 95
Plant response rating, Radish, Wild [12, 16]: 95
Plant response rating (scale of 0 to 100), Radish, Wild ([12]; Preemergence, 31 g ai/ha): 55
Plant response rating, Radish, Wild [12, 17]: 90
Plant response rating, Radish, Wild [12, 18]: 95
Plant response rating, Radish, Wild [12, 19]: 90
Plant response rating, Radish, Wild [12, 20]: 75
Field Violet plant response rating [13, 14]: 80
Plant response rating, Field Violet [13, 15]: 100
Plant response rating, Field Violet [13, 16]: 85
Plant response rating (scale of 0 to 100), Field Violet ([13]; Preemergence, 31 g ai/ha): 95
Plant response rating, Field Violet [13, 17]: 100
Plant response rating, Field Violet [13, 18]: 100
Plant response rating, Field Violet [13, 19]: 100
Plant response rating, Field Violet [13, 20]: 95
